Reference: patent publication US20170157301A1, “LEOLIGIN DERIVATIVES AS SMOOTH MUSCLE CELL PROLIFERATION INHIBITORS” (TECHNISCHE UNIVERSITAET WIEN, priority 2014, published 2017)

Tested on: SMCs in relation to ECs
Assay: activity ratio: efficiency towards SMCs / efficiency towards ECs
Assay type: cell-based
Conditions: activity ratio class; order in Table 1 follows the calculated values
Description: For determination of vascular SMC proliferation, 0.5×10^4 viable rat aortic SMCs per well were seeded in SMC growth medium (DMEM/F12 medium with 20% serum, 30 μg/mL Gentamicin and 15 ng/mL Amphotericin) in 96-well plates. 24 h later, the medium was removed, the cells were washed once with SMC starvation medium (DMEM/F12 medium with 0.1% serum, 0.2% BSA, 30 μg/mL Gentamicin and 15 ng/mL Amphotericin) and incubated in starvation medium for further 24 h.
The quiescent cells were then pretreated for 30 min with the test compounds and induced to proliferate with 20 ng/mL platelet-derived growth factor (PDGF). Unstimulated cells were utilized for normalization and estimation of the basal level of proliferation. The final concentration of the solvent vehicle, dimethyl sulfoxide (DMSO), was the same (0.1%) in all wells. 48 h later, the SMC proliferation was quantified by resazurin dye conversion for 2 h as previously described (H. Joa et al., J. Nat. Prod. 74(6), 1513-6 (2011)).
For determination of endothelial cell proliferation, 0.5×10^4 HUVECtert immortalized human umbilical vein endothelial cells (H. B. Schiller et al., Mol. Biol. Cell. 20(3), 745-756 (2009)) were seeded in 96-well plates for 24 h in HUVEC Complete Medium (EBM™ growth medium supplemented with 10% fetal bovine serum, EBM™ SingleQuots (Lonza, Basel, Switzerland), 100 U/mL benzylpenicillin, 100 μg/mL streptomycin, and 1% amphotericin). Afterwards, the medium was exchanged with fresh HUVEC Complete Medium and cells were treated with the indicated compounds for 48 h. After the end of the incubation period, the medium was removed, the cells were washed once with 200 μL/well PBS, and treated with 150 μL HUVEC Complete Medium containing 10 μg/mL resazurin. 2 h later, the fluorescence was measured at a wavelength of 580 nm, with excitation wavelength 535 nm in a 96-well plate reader (Tecan GENios Pro; Tecan Group Ltd., Mannedorf, Switzerland).
In every case, the percentage of viable cells was subtracted from 1, in order to obtain a measure of efficiency of the test compounds towards each particular type of cells, and subsequently, the efficiency quotient towards SMCs and ECs was calculated and taken as the “activity ratio” and thus as a measure of selective efficiency of each test compound towards SMCs in relation to ECs. For example, the synthetic Leoligin with the bio ID 2418 prepared in Comparative Example 27 as compound 10-22 gave the following results:
Due to the usual fluctuations in determining surviving cells, which amount to approximately ±10%, and due to the relatively strong resulting fluctuations in calculating quotients—especially if the inhibitory effect of said novel compounds towards ECs is very poor—said threshold value of 1.50 for the activity ratio, as already mentioned above, was introduced.
In the following, a table listing every compound prepared in examples and comparative Examples for which an activity ratio (a.r.) of >1.0 was determined, is given.

| SMILES | a.r. code |
| --- | --- |
| COc1ccc(C[C@H]2CO[C@H](c3ccc(F)cc3)[C@H]2COC(=O)C2CCCC2)cc1OC [Example 29, ((2S,3R,4R)-4-(3,4-dimethoxybenzyl)-2-(4-fluorophenyl)tetrahydrofuran-3-yl)-methyl cyclopentanecarboxylate] | A (a.r. ≧ 1.50) |
| COc1ccc([C@H]2OC[C@H](Cc3ccc(C(C)(C)C)cc3)[C@@H]2COC(=O)C2CCCC2)cc1OC [Example 30, ((2S,3R,4R)-4-(4-(tert-butyl)benzyl)-2-(3,4-dimethoxyphenyl)tetrahydrofuran-3-yl)methyl cyclopentanecarboxylate] | AA (a.r. ≧ 2.0) |
| CCC(CC)C(=O)OC[C@H]1[C@@H](Cc2ccc(OC)c(OC)c2)CO[C@@H]1c1ccc(F)cc1 [Example 31, ((2S,3R,4R)-4-(3,4-dimethoxybenzyl)-2-(4-fluorophenyl)tetrahydrofuran-3-yl)-methyl 2-ethylbutanoate] | A (a.r. ≧ 1.50) |
| COc1ccc(C[C@H]2CO[C@H](c3ccc(F)cc3)[C@H]2COC(=O)CC(C)C)cc1OC [Example 32, ((2S,3R,4R)-4-(3,4-dimethoxybenzyl)-2-(4-fluorophenyl)tetrahydrofuran-3-yl)-methyl 3-methylbutanoate] | AAA (a.r. ≧ 5.0) |
| COc1ccc(C[C@H]2CO[C@H](c3ccc(F)cc3)[C@H]2COC(=O)C2CCC2)cc1OC [Example 33, ((2S,3R,4R)-4-(3,4-dimethoxybenzyl)-2-(4-fluorophenyl)tetrahydrofuran-3-yl)methyl cyclobutanecarboxylate] | AA (a.r. ≧ 2.0) |
| C/C=C(\C)C(=O)OC[C@H]1[C@@H](Cc2ccc(OC)c(OC)c2)CO[C@@H]1c1cc(OC)c(OC)c(OC)c1 [Example 34, (E)-((2S,3R,4R)-4-(3,4-dimethoxybenzyl)-2-(3,4,5-trimethoxyphenyl)tetra-hydrofuran-3-yl)methyl 2-methylbut-2-enoate] | AAA (a.r. ≧ 5.0) |
| COc1ccc(C[C@H]2CO[C@H](c3cc(OC)c(OC)c(OC)c3)[C@H]2COC(=O)C2=CCCC2)cc1OC [Example 35, ((2S,3R,4R)-4-(3,4-dimethoxybenzyl)-2-(3,4,5-trimethoxyphenyl)tetrahydro-furan-3-yl)methyl cyclopent-1-enecarboxylate] | AA (a.r. ≧ 2.0) |
| COc1ccc(C[C@H]2CO[C@H](c3cc(OC)c(OC)c(OC)c3)[C@H]2COC(=O)c2ccccc2)cc1OC [Example 36, ((2S,3R,4R)-4-(3,4-dimethoxybenzyl)-2-(3,4,5-trimethoxyphenyl)tetrahydro-furan-3-yl)methyl benzoate] | A (a.r. ≧ 1.50) |
| CCCC(=O)OC[C@H]1[C@@H](Cc2ccc(OC)c(OC)c2)CO[C@@H]1c1cc(OC)c(OC)c(OC)c1 [Example 37, ((2S,3R,4R)-4-(3,4-dimethoxybenzyl)-2-(3,4,5-trimethoxyphenyl)tetrahydro-furan-3-yl)methyl butyrate] | AAA (a.r. ≧ 5.0) |
| COc1ccc(C[C@H]2CO[C@H](c3cc(OC)c(OC)c(OC)c3)[C@H]2COC(=O)C(C)C)cc1OC [Example 38, ((2S,3R,4R)-4-(3,4-dimethoxybenzyl)-2-(3,4,5-trimethoxyphenyl)tetrahydro-furan-3-yl)methyl isobutyrate] | AAA (a.r. ≧ 5.0) |
| COc1ccc(C[C@H]2CO[C@H](c3cc(OC)c(OC)c(OC)c3)[C@H]2COC(=O)C2CCCCC2)cc1OC [Example 39, ((2S,3R,4R)-4-(3,4-dimethoxybenzyl)-2-(3,4,5-trimethoxyphenyl)tetrahydro-furan-3-yl)methyl cyclohexanecarboxylate] | A (a.r. ≧ 1.50) |
| COc1ccc(C[C@H]2CO[C@H](c3cc(OC)c(OC)c(OC)c3)[C@H]2COC(=O)C2CCCC2)cc1OC [Example 40, ((2S,3R,4R)-4-(3,4-dimethoxybenzyl)-2-(3,4,5-trimethoxyphenyl)tetrahydro-furan-3-yl)methyl cyclopentanecarboxylate] | AA (a.r. ≧ 2.0) |
